Assay results reported in PubChem BioAssay (NCI).
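Dose response: 5 concentrations. Exposure: 48 h. Format: 96-well plates. Endpoint: linear interpolation; highest concentration if not reached. GI50 = concentration required for 50% inhibition of growth. TGI denotes the concentration required for complete inhibition of growth.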 *1 amine or outer side, *2 acyl side, *3 side chain or, on linkers, in order; H or OH if unused. Where a SMILES comes first, the peptide text is derived from it. Bridges are numbered along the chain shown (N, C = ends). [ ]: non-standard residue; d: D form. The star is where a group is joined. Phe(3-F) = N[C@@H](Cc1cccc(F)c1)C(=O)O; Pro(4R-Me) = C[C@H]1CN[C@H](C(=O)O)C1; aThr = C[C@H](O)[C@H](N)C(=O)O; Pip = O=C(O)[C@@H]1CCCCN1; X8 = CCc1ccc(N*)c(F)c1; CO = O=C([*:1])[*:2]

Legend:
Test in all cases: inhibition of tumour cell growth, NCI panel, 48 h
[1] = system: SNB-75 CNS
[2] = system: TK-10 renal
[3] = system: 786-0 renal
[4] = system: MDA-MB-435
[5] = system: OVCAR-8 ovarian
[6] = system: M14 melanoma
[7] = system: SF-268 CNS
[8] = system: KM12 colon
[9] = system: OVCAR-5 ovarian
[10] = system: MCF7 breast
[11] = system: CCRF-CEM leukemia
[12] = system: MDA-MB-231 breast
[13] = system: DU-145 prostate
[14] = system: UO-31 renal
[15] = system: U251 CNS
[16] = system: SF-295 CNS
[17] = system: HT29 colon
[18] = system: EKVX NSCLC
[19] = system: NCI-H226 lung
[20] = system: K-562 leukemia
[21] = system: UACC-257 melanoma
[22] = system: HOP-62 NSCLC
[23] = system: UACC-62 melanoma
[24] = system: OVCAR-3 ovarian
[25] = system: HCC-2998 colon
[26] = system: A549 NSCLC
[27] = system: RXF 393 renal
[28] = system: HS 578T breast
[29] = system: SW-620 colon
[30] = system: SK-MEL-28 melanoma
[31] = system: HCT-15 colon
[32] = system: CAKI-1 renal
[33] = system: SNB-19 CNS
[34] = system: HCT-116 colon
[35] = system: SK-MEL-2 melanoma
[36] = system: SN12C renal
[37] = system: ACHN renal
[38] = system: HOP-92 NSCLC
[39] = system: OVCAR-4 ovarian
[40] = system: NCI-H522 lung
[41] = system: PC-3 prostate
[42] = system: SK-MEL-5 melanoma
[43] = system: NCI/ADR-RES ovarian
[44] = system: A498 renal
[45] = system: MOLT-4 leukemia
[46] = system: HL-60(TB) leukemia
[47] = system: NCI-H460 lung
[48] = system: BT-549 breast
[49] = system: NCI-H23 lung
[50] = system: IGROV1 ovarian
[51] = system: MALME-3M melanoma
[52] = system: SF-539 CNS
[53] = system: RPMI-8226 leukemia
[54] = system: LOX IMVI melanoma
[55] = system: T-47D breast
[56] = system: SR leukemia
[57] = system: SK-OV-3 ovarian
[58] = system: COLO 205 colon

With `CCc1ccc(NC(=O)N[C@@H](Cc2cccc(F)c2)C(=O)N[C@@H]2C(=O)N3CCC[C@H]3C(=O)N3CCCC[C@H]3C(=O)N[C@@H](C)C(=O)N3C[C@H](C)C[C@H]3C(=O)O[C@H]2C)c(F)c1` ({X8-CO}-[Phe(3-F)][aThr]P[Pip]A[Pro(4R-Me)]; ester 2-C) as the compound, how does the GI50 [1] read?
Its GI50 is 202 nM.

And the TGI [1]?
Its TGI is 3590 nM.

What about the GI50 [2] of the same compound?
The GI50 was 608 nM.

And the TGI [2]?
Its TGI is 29100 nM.

What about the GI50 [3] of the same compound?
Its GI50 is 421 nM.

And the TGI [3]?
The TGI was 75200 nM.

And the GI50 [4]?
The GI50 was 183 nM.

What about the TGI [4] of the same compound?
Its TGI is 6010 nM.

And the GI50 [5]?
The GI50 was 145 nM.

And the TGI [5]?
The TGI was over 100000 nM.

What about the GI50 [6] of the same compound?
The GI50 was 214 nM.

And the TGI [6]?
Its TGI is 2090 nM.

What about the GI50 [7] of the same compound?
The GI50 was 463 nM.

What about the TGI [7] of the same compound?
Its TGI is 53400 nM.

And the GI50 [8]?
Its GI50 is 919 nM.

And the TGI [8]?
Its TGI is 18000 nM.

What about the GI50 [9] of the same compound?
Its GI50 is 439 nM.

What about the TGI [9] of the same compound?
Its TGI is 4660 nM.

And the GI50 [10]?
Its GI50 is 272 nM.

What about the TGI [10] of the same compound?
Its TGI is 19300 nM.

What about the GI50 [11] of the same compound?
The GI50 was 252 nM.

And the TGI [11]?
Its TGI is 29900 nM.

What about the GI50 [12] of the same compound?
Its GI50 is 283 nM.

What about the TGI [12] of the same compound?
The TGI was 2270 nM.

And the GI50 [13]?
Its GI50 is 285 nM.

What about the TGI [13] of the same compound?
Its TGI is over 100000 nM.

What about the GI50 [14] of the same compound?
Its GI50 is 377 nM.

And the TGI [14]?
The TGI was 16500 nM.

And the GI50 [15]?
Its GI50 is 318 nM.

And the TGI [15]?
The TGI was 31800 nM.

And the GI50 [16]?
Its GI50 is 270 nM.

And the TGI [16]?
The TGI was 1710 nM.

What about the GI50 [17] of the same compound?
The GI50 was 352 nM.

What about the TGI [17] of the same compound?
Its TGI is 2750 nM.

And the GI50 [18]?
The GI50 was 367 nM.

What about the TGI [18] of the same compound?
Its TGI is over 58100 nM.

And the GI50 [19]?
Its GI50 is 351 nM.

And the TGI [19]?
Its TGI is 5230 nM.

And the GI50 [20]?
The GI50 was 52.6 nM.

What about the TGI [20] of the same compound?
Its TGI is over 56200 nM.

What about the GI50 [21] of the same compound?
Its GI50 is 319 nM.

What about the TGI [21] of the same compound?
Its TGI is 5320 nM.

What about the GI50 [22] of the same compound?
Its GI50 is 562 nM.

What about the TGI [22] of the same compound?
Its TGI is over 53200 nM.

What about the GI50 [23] of the same compound?
Its GI50 is 369 nM.

What about the TGI [23] of the same compound?
The TGI was 10100 nM.

What about the GI50 [24] of the same compound?
The GI50 was 337 nM.

And the TGI [24]?
The TGI was 6870 nM.

What about the GI50 [25] of the same compound?
Its GI50 is 353 nM.

And the TGI [25]?
The TGI was 2710 nM.

And the GI50 [26]?
The GI50 was 509 nM.

And the TGI [26]?
Its TGI is over 79500 nM.

And the GI50 [27]?
Its GI50 is 948 nM.

And the TGI [27]?
The TGI was 7960 nM.

What about the GI50 [28] of the same compound?
The GI50 was 264 nM.

And the TGI [28]?
The TGI was 4580 nM.

And the GI50 [29]?
Its GI50 is 486 nM.

What about the TGI [29] of the same compound?
The TGI was over 60700 nM.

What about the GI50 [30] of the same compound?
The GI50 was 589 nM.

What about the TGI [30] of the same compound?
The TGI was 13100 nM.

What about the GI50 [31] of the same compound?
Its GI50 is 347 nM.

And the TGI [31]?
The TGI was 7220 nM.

What about the GI50 [32] of the same compound?
The GI50 was 296 nM.

And the TGI [32]?
The TGI was 13500 nM.

And the GI50 [33]?
The GI50 was 218 nM.

And the TGI [33]?
Its TGI is over 82900 nM.

What about the GI50 [34] of the same compound?
The GI50 was 60.4 nM.

And the TGI [34]?
Its TGI is 2620 nM.

What about the GI50 [35] of the same compound?
The GI50 was 243 nM.

And the TGI [35]?
The TGI was 2020 nM.

And the GI50 [36]?
Its GI50 is 294 nM.

And the TGI [36]?
Its TGI is over 57300 nM.

And the GI50 [37]?
The GI50 was 503 nM.

What about the TGI [37] of the same compound?
The TGI was over 53700 nM.

What about the GI50 [38] of the same compound?
The GI50 was 380 nM.

What about the TGI [38] of the same compound?
The TGI was 6750 nM.

What about the GI50 [39] of the same compound?
Its GI50 is 163 nM.

And the TGI [39]?
The TGI was over 19900 nM.

And the GI50 [40]?
The GI50 was 182 nM.

What about the TGI [40] of the same compound?
The TGI was 6820 nM.

What about the GI50 [41] of the same compound?
Its GI50 is 191 nM.

And the TGI [41]?
The TGI was over 100000 nM.

What about the GI50 [42] of the same compound?
Its GI50 is 354 nM.

What about the TGI [42] of the same compound?
The TGI was 1570 nM.

And the GI50 [43]?
Its GI50 is 962 nM.

What about the TGI [43] of the same compound?
The TGI was over 51200 nM.

What about the GI50 [44] of the same compound?
Its GI50 is 616 nM.

And the TGI [44]?
Its TGI is 7340 nM.

And the GI50 [45]?
The GI50 was 594 nM.

What about the TGI [45] of the same compound?
Its TGI is 18100 nM.

And the GI50 [46]?
The GI50 was 135 nM.

What about the TGI [46] of the same compound?
The TGI was 1700 nM.

What about the GI50 [47] of the same compound?
The GI50 was 262 nM.

And the TGI [47]?
Its TGI is 12900 nM.

And the GI50 [48]?
Its GI50 is 199 nM.

What about the TGI [48] of the same compound?
Its TGI is 2800 nM.

What about the GI50 [49] of the same compound?
Its GI50 is 425 nM.

And the TGI [49]?
The TGI was 20200 nM.

And the GI50 [50]?
The GI50 was 614 nM.

What about the TGI [50] of the same compound?
Its TGI is over 47700 nM.

What about the GI50 [51] of the same compound?
The GI50 was 464 nM.

What about the TGI [51] of the same compound?
The TGI was 11400 nM.

What about the GI50 [52] of the same compound?
Its GI50 is 541 nM.

And the TGI [52]?
The TGI was 12600 nM.

What about the GI50 [53] of the same compound?
The GI50 was 55.3 nM.

And the TGI [53]?
Its TGI is 4340 nM.

And the GI50 [54]?
Its GI50 is 369 nM.

What about the TGI [54] of the same compound?
The TGI was 16200 nM.

What about the GI50 [55] of the same compound?
Its GI50 is 337 nM.

And the TGI [55]?
Its TGI is 18900 nM.

And the GI50 [56]?
The GI50 was 380 nM.

What about the TGI [56] of the same compound?
Its TGI is 10200 nM.

And the GI50 [57]?
The GI50 was 583 nM.

And the GI50 [58]?
Its GI50 is 180 nM.

What about the TGI [58] of the same compound?
The TGI was 511 nM.
